Results: the NIST ThermoML archive (doi:10.1016/j.jct.2014.12.008)
± gives the expanded uncertainty stated by the source.

Conditions: Liquid, Closed cell (Static) method

Row | SMILES | vapor or sublimation pressure (273.15 K) | vapor or sublimation pressure (283.15 K) | vapor or sublimation pressure (293.15 K) | vapor or sublimation pressure (303.15 K) | vapor or sublimation pressure (313.15 K) | vapor or sublimation pressure (323.15 K) | vapor or sublimation pressure (333.15 K) | vapor or sublimation pressure (343.15 K) | vapor or sublimation pressure (353.15 K) | vapor or sublimation pressure (363.15 K)
1 | CCC(N)CCN (stereo not given) [1,3-pentanediamine] | 0.026 ± 0.002 kPa | 0.064 ± 0.005 kPa | 0.144 ± 0.01 kPa | 0.299 ± 0.019 kPa | 0.585 ± 0.037 kPa | 1.081 ± 0.028 kPa | 1.902 ± 0.023 kPa | 3.206 ± 0.032 kPa | 5.201 ± 0.045 kPa | 8.153 ± 0.065 kPa
2 | CC(CN)CCCN (stereo not given) [2-methyl-1,5-pentanediamine] | 0.004 ± 0.001 kPa | 0.011 ± 0.001 kPa | 0.028 ± 0.002 kPa | 0.065 ± 0.005 kPa | 0.137 ± 0.009 kPa | 0.274 ± 0.017 kPa | 0.519 ± 0.033 kPa | 0.934 ± 0.024 kPa | 1.611 ± 0.022 kPa | 2.67 ± 0.028 kPa
